Measured values reported in ChEMBL document CHEMBL1149483, “Identification of potent agonists of photoreceptor-specific nuclear receptor (NR2E3) and preparation of a radioligand” (Bioorg Med Chem Lett, 2006).

Legend:
[1] = molecular target: T1, Photoreceptor-specific nuclear receptor (Homo sapiens, UniProt Q9Y5X4); assay: Agonist activity at NR2E3 by luciferase NCOR release assay in CHO cells; type: functional, cell-based
[2] = molecular target: T1, Photoreceptor-specific nuclear receptor; assay: Agonist activity at NR2E3 by beta lactamase transactivation assay; type: functional

T1 sequence (Q9Y5X4 whole entry): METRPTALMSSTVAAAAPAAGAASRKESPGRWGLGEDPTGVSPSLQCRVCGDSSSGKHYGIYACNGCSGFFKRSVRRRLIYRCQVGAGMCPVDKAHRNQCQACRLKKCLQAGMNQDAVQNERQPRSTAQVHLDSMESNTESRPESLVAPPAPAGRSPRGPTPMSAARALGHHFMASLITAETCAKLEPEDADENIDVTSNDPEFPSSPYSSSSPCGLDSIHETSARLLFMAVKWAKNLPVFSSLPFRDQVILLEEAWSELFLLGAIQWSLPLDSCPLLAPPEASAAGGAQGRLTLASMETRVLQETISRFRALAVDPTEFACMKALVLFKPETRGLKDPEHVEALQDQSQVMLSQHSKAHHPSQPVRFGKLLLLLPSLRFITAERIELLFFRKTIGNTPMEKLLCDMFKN

Row | Compound | EC50 [1] [µM] | EC50 [2] [µM]
1 | CC(C)(C)C(=O)Nc1ccc2nc(-c3ccc(NC(=O)c4ccccc4Cl)cc3)[nH]c2c1 | 2.61 | 6.27
2 | Cc1ccccc1C(=O)Nc1ccc(-c2nc3ccc(NC(=O)c4ccccc4Cl)cc3[nH]2)cc1 | 0.33 | 0.26
3 | O=C(Nc1ccc(-c2nc3cc(NC(=O)C4CCC4)ccc3[nH]2)cc1)c1ccccc1Cl | 0.986 | 1.33
4 | O=C(Nc1ccc2nc(-c3cnn(-c4ccc(F)cc4)c3)[nH]c2c1)c1ccccc1Cl | 4.1 | > 25
5 | N#CC1(C(=O)Nc2ccc3[nH]c(-c4ccc(NC(=O)c5ccccc5Cl)cc4)nc3c2)CC1 | 10 | 17
6 | O=C(Nc1ccc(-c2nc3cc(NC(=O)C4CC4(F)F)ccc3[nH]2)cc1)c1ccccc1Cl (stereo unspecified) | 3 | 2.1
7 | CC(C)C(=O)Nc1ccc2nc(-c3ccc(NC(=O)c4ccccc4Cl)cc3)[nH]c2c1 | 0.147 | 0.316
8 | O=C(Nc1ccc2nc(-c3ccc(NC(=O)c4cccnc4Cl)cc3)[nH]c2c1)c1ccccc1Cl | 2.2 | 4.8
9 | O=C(Nc1ccc(-c2nc3cc(NC(=O)c4ccccc4Cl)ccc3[nH]2)cc1)c1ccccc1F | 0.17 | 0.27
10 | O=C(Nc1ccc2nc(-c3cc(Cl)cc(Cl)c3O)[nH]c2c1)c1ccccc1Cl | 4.2 | > 25
11 | O=C(Nc1ccc(-c2nc3ccc(NC(=O)C4CCCC4)cc3[nH]2)cc1)c1ccccc1Cl | 1.32 | 3.16
12 | O=C(Nc1ccc(-c2nc3cc(NC(=O)[C@@H]4C[C@H]4F)ccc3[nH]2)cc1)c1ccccc1Cl | 0.26 | 0.72
13 | O=C(Nc1ccc(-c2nc3cc(NC(=O)c4ccccc4Cl)ccc3[nH]2)cc1)c1ccccc1 | 0.61 | 0.27
14 | O=C(Nc1ccc(-c2nc3ccc(NC(=O)C4CC4)cc3[nH]2)cc1)c1ccccc1Cl | 0.035 | 0.141
15 | O=C(Nc1ccc2[nH]c(-c3ccc4c(c3)OCO4)nc2c1)c1ccccc1Cl | 7.2 | > 25
16 | CC1(C(=O)Nc2ccc3nc(-c4ccc(NC(=O)c5ccccc5Cl)cc4)[nH]c3c2)CC1 | 2.9 | 2.5
17 | O=C(Nc1cccc(-c2nc3cc(NC(=O)c4ccccc4Cl)ccc3[nH]2)c1)c1ccccc1Cl | 4.1 | 10
18 | O=C(Nc1ccc(-c2nc3cc(NC(=O)C4(c5ccccc5)CC4)ccc3[nH]2)cc1)c1ccccc1Cl | 0.37 | > 25
